Reference: patent US20070292451A1, “Medical herb composition for promoting the growth of hair A mammal and the manufacturing method thereof” (Brion Research Institute of Taiwan, priority 2006, published 2007)

System: humans
Assay: Oral administration of the medical herb composition to human volunteers with hair shedding
Type: in vivo
Conditions: Example 14: person
Text: The administered dose is based on body weight. For dogs and cats, the dose was 1-1.5 g/5 kg/day. […] because dogs and cats have higher metabolism rate than humans. […] The forehead hairline moved forward after one month, and generally the hair became thick. […] The efficacy of the composition is clearly identified by comparing the photo taken at the 37th day after the first administration of the composition (FIG. 8(b)) to that taken at 5th day (FIG. 8(a)). […] The test was performed on a volunteer, a person ([…]). […] They were diagnosed to suffer from Male Pattern Baldness. […] The efficacy of the composition is clearly identified by comparing the photo taken after the administration of the composition for 1 month (FIG. 9(b)) to that taken before the administration of the composition (FIG. 9(a)). […] In addition, after continuous administration of the composition for 1 month, their eyesight was 150 degree less than that before the administration of the composition.

CC(C)(C)NC(=O)[C@H]1CC[C@H]2[C@@H]3CC[C@H]4NC(=O)C=C[C@]4(C)[C@H]3CC[C@]12C [Finasteride]
effect on Male Pattern Baldness (earlier treatment of the subject): the effect was poor
